pIC50: −log10 of the molar value. Like-named read-outs stand apart in the source and are kept apart here.
Target: full-length human PIKFYVE (GST-PIKFYVE) (Homo sapiens (Human), UniProt Q9Y2I7, L932S/Q1183K/Q995L/S1033A/S696N/T998S)
Test: PIKfyve biochemical assay (ADP-Glo Kinase assay, Carna Biosciences)
Excerpt: PIKfyve Biochemical Assay. The biochemical PIKFyve inhibition assays were run by Carna Biosciences according to proprietary methodology based on the Promega ADP-Glo™ Kinase assay. A full-length human PIKFYVE [1-2098(end) amino acids and S696N, L932S, Q995L, T998S, S1033A and Q1183K of the protein having the sequence set forth in NCBI Reference Sequence No. NP_055855.2] was expressed as N-terminal GST-fusion protein (265 kDa) using baculovirus expression system. GST-PIKFYVE was purified by using glutathione sepharose chromatography and used in an ADP-Glo™ Kinase assay (Promega). Reactions were set up by adding the test compound solution, substrate solution, ATP solution and kinase solution, each at 4× final concentrations. Reactions were prepared with assay buffer (50 mM MOPS, 1 mM DTT, pH7.2), mixed, and incubated in black 384 well polystyrene plates for 1 hour at room temperature. ADP-Glo™ reagent was then added for 40 minutes, followed by kinase detection reagent for an additional 40 minutes. The kinase activity was evaluated by detecting relative light units on a luminescence plate reader. Samples were run in duplicate from 10 μM to 3 nM. […] IC50 values were calculated from concentration vs % inhibition curves by fitting to a four-parameter logistic curve.
The biochemical PIKFyve inhibition assays were run by Carna Biosciences according to proprietary methodology based on the Promega ADP-Glo™ Kinase assay. A full-length human PIKFYVE [1-2098(end) amino acids and S696N, L932S, Q995L, T998S, S1033A and Q1183K of accession number NP_055855.2] was expressed as N-terminal GST-fusion protein (265 kDa) using baculovirus expression system. GST-PIKFYVE was purified by using glutathione sepharose chromatography and used in an ADP-Glo™ Kinase assay (Promega).
Reactions were set up by adding the test compound solution, substrate solution, ATP solution and kinase solution, each at 4× final concentrations. Reactions were prepared with assay buffer (50 mM MOPS, 1 mM DTT, pH7.2), mixed, and incubated in black 384 well polystyrene plates for 1 hour at room temperature. ADP-Glo™ reagent was then added for 40 minutes, followed by kinase detection reagent for an additional 40 minutes. The kinase activity was evaluated by detecting relative light units on a luminescence plate reader. Samples were run in duplicate from 10 uM to 3 nM. […] IC50 values were calculated from concentration vs % inhibition curves by fitting to a four-parameter logistic curve.

[1] = values plotted in FIG. 7, read-out: PIKFYVE Biochemistry (IC50)
[2] = ADP-Glo, full-length human PIKFYVE, read-out: hPIKfyve IC50

full-length human PIKFYVE (GST-PIKFYVE), sequence (Q9Y2I7 whole entry S696N/L932S/Q995L/T998S/S1033A/Q1183K): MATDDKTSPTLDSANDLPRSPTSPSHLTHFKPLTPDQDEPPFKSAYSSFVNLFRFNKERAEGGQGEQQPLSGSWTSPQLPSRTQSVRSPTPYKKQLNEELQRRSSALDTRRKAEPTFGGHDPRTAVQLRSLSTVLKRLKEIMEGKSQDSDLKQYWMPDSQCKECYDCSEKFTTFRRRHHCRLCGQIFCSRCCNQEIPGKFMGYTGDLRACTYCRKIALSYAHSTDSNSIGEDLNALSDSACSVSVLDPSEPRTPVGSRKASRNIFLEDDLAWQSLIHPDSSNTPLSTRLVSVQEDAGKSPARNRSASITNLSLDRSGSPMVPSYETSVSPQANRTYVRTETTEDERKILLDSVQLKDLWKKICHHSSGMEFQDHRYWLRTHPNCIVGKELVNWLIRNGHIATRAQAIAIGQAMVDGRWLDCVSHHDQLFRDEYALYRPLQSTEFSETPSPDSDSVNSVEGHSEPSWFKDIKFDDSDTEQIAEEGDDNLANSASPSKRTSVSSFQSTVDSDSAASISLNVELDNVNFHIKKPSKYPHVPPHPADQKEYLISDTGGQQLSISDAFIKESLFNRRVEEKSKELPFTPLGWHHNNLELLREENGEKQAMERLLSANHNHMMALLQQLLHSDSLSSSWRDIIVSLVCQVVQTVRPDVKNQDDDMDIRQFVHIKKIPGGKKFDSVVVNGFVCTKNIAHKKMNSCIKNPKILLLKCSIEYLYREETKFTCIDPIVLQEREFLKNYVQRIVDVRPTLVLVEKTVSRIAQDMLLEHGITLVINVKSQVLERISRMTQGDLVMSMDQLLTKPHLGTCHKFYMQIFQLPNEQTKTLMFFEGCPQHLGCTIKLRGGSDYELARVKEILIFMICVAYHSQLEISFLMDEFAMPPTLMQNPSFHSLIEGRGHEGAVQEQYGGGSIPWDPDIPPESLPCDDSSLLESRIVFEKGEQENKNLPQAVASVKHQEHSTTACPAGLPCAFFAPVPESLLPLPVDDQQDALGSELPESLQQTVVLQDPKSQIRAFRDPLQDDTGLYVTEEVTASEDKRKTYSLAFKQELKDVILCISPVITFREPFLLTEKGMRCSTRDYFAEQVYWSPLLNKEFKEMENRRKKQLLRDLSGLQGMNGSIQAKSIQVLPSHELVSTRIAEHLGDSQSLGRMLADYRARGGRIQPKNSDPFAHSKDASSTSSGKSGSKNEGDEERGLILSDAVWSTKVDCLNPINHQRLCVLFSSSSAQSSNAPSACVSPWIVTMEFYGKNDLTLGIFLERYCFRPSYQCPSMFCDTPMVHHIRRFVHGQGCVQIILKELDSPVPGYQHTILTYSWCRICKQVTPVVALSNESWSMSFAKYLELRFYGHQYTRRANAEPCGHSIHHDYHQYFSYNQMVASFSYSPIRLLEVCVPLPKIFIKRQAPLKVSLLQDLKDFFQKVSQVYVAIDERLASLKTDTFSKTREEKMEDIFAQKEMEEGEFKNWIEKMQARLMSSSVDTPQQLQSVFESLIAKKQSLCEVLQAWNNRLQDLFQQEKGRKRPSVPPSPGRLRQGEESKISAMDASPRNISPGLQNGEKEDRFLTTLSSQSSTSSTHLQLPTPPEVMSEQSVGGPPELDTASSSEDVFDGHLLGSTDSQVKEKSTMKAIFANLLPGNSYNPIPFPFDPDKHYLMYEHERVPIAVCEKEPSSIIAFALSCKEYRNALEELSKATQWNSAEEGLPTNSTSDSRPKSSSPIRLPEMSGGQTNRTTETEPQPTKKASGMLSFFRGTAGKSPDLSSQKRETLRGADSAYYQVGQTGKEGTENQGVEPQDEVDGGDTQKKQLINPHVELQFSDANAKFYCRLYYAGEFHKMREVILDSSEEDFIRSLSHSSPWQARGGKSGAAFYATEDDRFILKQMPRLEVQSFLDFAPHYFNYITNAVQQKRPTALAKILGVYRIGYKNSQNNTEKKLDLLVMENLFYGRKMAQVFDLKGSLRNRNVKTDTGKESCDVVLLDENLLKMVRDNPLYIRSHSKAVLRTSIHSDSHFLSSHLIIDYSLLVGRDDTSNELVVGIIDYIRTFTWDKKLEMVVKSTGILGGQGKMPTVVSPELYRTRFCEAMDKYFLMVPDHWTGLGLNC

| SMILES | pIC50 [2] | pIC50 [1] |
| --- | --- | --- |
| c1ccc(-c2nc(-c3cc(N4CCOCC4)nc(OCc4ccncc4)n3)no2)cc1 |  | < 5.00 |
| O=c1c(CCOc2cccnc2)cc2ncncc2n1-c1ccccc1 |  | < 5.00 |
| O=c1ccn(Cc2nc(N3CCOCC3)cc(-n3nccc3-c3ccccc3)n2)cc1 |  | < 5.00 |
| CCC(=O)N1CCC(c2ccn(-c3nc(N4CCOCC4)c4ncccc4n3)n2)CC1 [compound 1, 1-[4-[1-(4-morpholinopyrido[3,2-d]pyrimidin-2-yl)pyrazol-3-yl]-1-piperidyl]propan-1-one] | 5.00 to 6.00 |  |
| CC(C)(C)OC(=O)N1CC=C(c2ccn(-c3nc(N4CCOCC4)c4ncccc4n3)n2)CC1 [compound 3, tert-butyl 4-[1-(4-morpholinopyrido[3,2-d]pyrimidin-2-yl)pyrazol-3-yl]-3,6-dihydro-2H-pyridine-1-carboxylate] | 5.00 to 6.00 |  |
| CC(C)(C)OC(=O)N1CCC=C(c2ccn(-c3nc(N4CCOCC4)c4ncccc4n3)n2)C1 [compound 4, tert-butyl 3-(1-(4-morpholinopyrido[3,2-d]pyrimidin-2-yl)-1H-pyrazol-3-yl)-5,6-dihydropyridine-1(2H)-carboxylate] | 5.00 to 6.00 |  |
| CC(C)c1ccn(-c2nc(N3CCOCC3)c3ncccc3n2)n1 [compound 9, 4-(2-(3-isopropyl-1H-pyrazol-1-yl)pyrido[3,2-d]pyrimidin-4-yl)morpholine] | 5.00 to 6.00 |  |
| c1cnc2c(N3CCOCC3)nc(-n3ccc(-c4ccncc4)n3)nc2c1 [compound 10, 4-(2-(3-(pyridin-4-yl)-1H-pyrazol-1-yl)pyrido[3,2-d]pyrimidin-4-yl)morpholine] | 6.00 to 7.00 |  |
| c1ccc(-c2ccn(-c3nc(N4CCOCC4)c4ncccc4n3)n2)nc1 [compound 12, 4-(2-(3-(pyridin-2-yl)-1H-pyrazol-1-yl)pyrido[3,2-d]pyrimidin-4-yl)morpholine] | 7.00 to 8.00 |  |
| c1ccc(-c2ccn(-c3nc(N4CCOCC4)c4ccncc4n3)n2)cc1 [compound 13] | 6.00 to 7.00 |  |
| CCc1cnc2c(N3CCOCC3)nc(-n3ccc(-c4ccncc4)n3)nc2c1 [compound 14, 4-(7-Ethyl-2-(3-(pyridin-4-yl)-1H-pyrazol-1-yl)pyrido[3,2-d]pyrimidin-4-yl)morpholine] | 5.00 to 6.00 |  |
| c1ccc(Nc2nc(N3CCOCC3)c3ncc(-c4ccco4)cc3n2)cc1 [compound 15, 7-(furan-2-yl)-4-morpholino-N-phenylpyrido[3,2-d]pyrimidin-2-amine] | 6.00 to 7.00 |  |
| O=C1N(c2cccc(F)c2)CCN1c1nc(N2CCOCC2)c2ncccc2n1 [compound 28, 1-(3-fluorophenyl)-3-(4-morpholinopyrido[3,2-d]pyrimidin-2-yl)imidazolidin-2-one] | 5.00 to 6.00 |  |
| O=C1N(c2ccccc2)CCN1c1nc(N2CCOCC2)c2ncccc2n1 [compound 29, 1-(4-morpholinopyrido[3,2-d]pyrimidin-2-yl)-3-phenyl-imidazolidin-2-one] | 5.00 to 6.00 |  |
| O=C1N(c2nc(N3CCOCC3)c3ncccc3n2)CCN1C1CCCC1 [compound 30, 1-cyclopentyl-3-(4-morpholinopyrido[3,2-d]pyrimidin-2-yl)imidazolidin-2-one] | 5.00 to 6.00 |  |
| Cn1c(-c2ccccc2)nn(-c2nc(N3CCOCC3)c3ncccc3n2)c1=O [compound 32, 4-methyl-2-(4-morpholinopyrido[3,2-d]pyrimidin-2-yl)-5-phenyl-1,2,4-triazol-3-one] | 5.00 to 6.00 |  |
| c1cnc2c(N3CCOCC3)nc(-c3ccnc(N4CCNCC4)n3)nc2c1 [compound 34, 4-[2-(2-piperazin-1-ylpyrimidin-4-yl)pyrido[3,2-d]pyrimidin-4-yl]morpholine] | 5.00 to 6.00 |  |
| c1cnc2c(N3CCOCC3)nc(-n3ccc(C4CCNCC4)n3)nc2c1 [compound 42, 4-[2-[3-(4-piperidyl)pyrazol-1-yl]pyrido[3,2-d]pyrimidin-4-yl]morpholine] | 5.00 to 6.00 |  |
| CN1CCCC(c2ccn(-c3nc(N4CCOCC4)c4ncccc4n3)n2)C1 (centres unmarked) [compound 44, 4-(2-(3-(1-methylpiperidin-3-yl)-1H-pyrazol-1-yl)pyrido[3,2-d]pyrimidin-4-yl)morpholine] | 5.00 to 6.00 |  |
| c1cnc2c(N3CCOCC3)nc(-n3ccc(C4CCOCC4)n3)nc2c1 [compound 45, 4-(2-(3-(tetrahydro-2H-pyran-4-yl)-1H-pyrazol-1-yl)pyrido[3,2-d]pyrimidin-4-yl)morpholine] | 5.00 to 6.00 |  |
| c1ccc(-c2ccn(-c3nc(N4CCOCC4)c4cnccc4n3)n2)cc1 [compound 46, 4-(2-(3-phenyl-1H-pyrazol-1-yl)pyrido[4,3-d]pyrimidin-4-yl)morpholine] | 5.00 to 6.00 |  |

Second part, led by results:

| pIC50 [2] | SMILES | pIC50 [1] |
| --- | --- | --- |
| 5.00 to 6.00 | c1cnc2c(N3CCOCC3)nc(-n3ccc(-c4cncnc4)n3)nc2c1 [compound 2, 4-[2-(3-pyrimidin-5-ylpyrazol-1-yl)pyrido[3,2-d]pyrimidin-4-yl]morpholine] |  |
| 5.00 to 6.00 | CC(C)(C)OC(=O)N1CCC(c2ccn(-c3nc(N4CCOCC4)c4ncccc4n3)n2)CC1 [compound 5, tert-butyl 4-[1-(4-morpholinopyrido[3,2-d]pyrimidin-2-yl)pyrazol-3-yl]piperidine-1-carboxylate] |  |
| 5.00 to 6.00 | CC(C)(C)OC(=O)N1CCCC(c2ccn(-c3nc(N4CCOCC4)c4ncccc4n3)n2)C1 (centres unmarked) [compound 6, tert-butyl 3-(1-(4-morpholinopyrido[3,2-d]pyrimidin-2-yl)-1H-pyrazol-3-yl)piperidine-1-carboxylate] |  |
| 6.00 to 7.00 | c1ccc2nn(-c3nc(N4CCOCC4)c4ncccc4n3)cc2c1 [compound 7, 4-(2-indazol-2-ylpyrido[3,2-d]pyrimidin-4-yl)morpholine] |  |
| 6.00 to 7.00 | c1cncc(-c2ccn(-c3nc(N4CCOCC4)c4ncccc4n3)n2)c1 [compound 11, 4-(2-(3-(pyridin-3-yl)-1H-pyrazol-1-yl)pyrido[3,2-d]pyrimidin-4-yl)morpholine] |  |
| < 5.00 | c1ccc(Oc2nc(N3CCOCC3)c3ncc(-c4ccco4)cc3n2)cc1 [compound 16, 4-(7-(furan-2-yl)-2-phenoxypyrido[3,2-d]pyrimidin-4-yl)morpholine] |  |
| 7.00 to 8.00 | c1ccc(-c2ccn(-c3nc(N4CCOCC4)c4ncc(C5CCCOC5)cc4n3)n2)cc1 (centres unmarked) [compound 19, 4-(2-(3-Phenyl-1H-pyrazol-1-yl)-7-(tetrahydro-2H-pyran-3-yl)pyrido[3,2-d]pyrimidin-4-yl)morpholine] |  |
| 6.00 to 7.00 | Cc1cccc(CCNc2nc(N3CCOCC3)c3ncccc3n2)c1 [compound 23, N-(3-methylphenethyl)-4-morpholinopyrido[3,2-d]pyrimidin-2-amine] |  |
| 5.00 to 6.00 | Oc1cc(-c2ccccc2)nn1-c1nc(N2CCOCC2)c2cccnc2n1 [compound 25, 2-(4-morpholinopyrido[2,3-d]pyrimidin-2-yl)-5-phenyl-2,4-dihydro-3H-pyrazol-3-one] |  |
| 7.00 to 8.00 | Oc1cc(-c2ccccc2)nn1-c1nc(N2CCOCC2)c2ncccc2n1 [compound 27, 1-(4-morpholinopyrido[3,2-d]pyrimidin-2-yl)-3-phenyl-1H-pyrazol-5-ol] |  |
| 5.00 to 6.00 | CCn1c(-c2ccccc2)nn(-c2nc(N3CCOCC3)c3ncccc3n2)c1=O [compound 31, 4-ethyl-2-(4-morpholinopyrido[3,2-d]pyrimidin-2-yl)-5-phenyl-1,2,4-triazol-3-one] |  |
| 5.00 to 6.00 | CC(C)(C)OC(=O)N1CCC(c2nccc(-c3nc(N4CCOCC4)c4ncccc4n3)n2)CC1 [compound 33, tert-butyl 4-[4-(4-morpholinopyrido[3,2-d]pyrimidin-2-yl)pyrimidin-2-yl]piperidine-1-carboxylate] |  |
| 5.00 to 6.00 | c1cnc2c(N3CCOCC3)nc(-c3ccnc(C4CCOCC4)n3)nc2c1 [compound 35, 4-[2-(2-tetrahydropyran-4-ylpyrimidin-4-yl)pyrido[3,2-d]pyrimidin-4-yl]morpholine] |  |
| 5.00 to 6.00 | c1cnc2c(N3CCOCC3)nc(-c3ccnc(C4CCNCC4)n3)nc2c1 [compound 37, 4-[2-[2-(4-piperidyl)pyrimidin-4-yl]pyrido[3,2-d]pyrimidin-4-yl]morpholine] |  |
| 5.00 to 6.00 | CN1CCC(c2nccc(-c3nc(N4CCOCC4)c4ncccc4n3)n2)CC1 [compound 38, 4-[2-[2-(1-methyl-4-piperidyl)pyrimidin-4-yl]pyrido[3,2-d]pyrimidin-4-yl]morpholine] |  |
| 5.00 to 6.00 | c1cnc2c(N3CCOCC3)nc(-n3ccc(C4CCCNC4)n3)nc2c1 (centres unmarked) [compound 43, 4-(2-(3-(piperidin-3-yl)-1H-pyrazol-1-yl)pyrido[3,2-d]pyrimidin-4-yl)morpholine] |  |
| 5.00 to 6.00 | c1cnc2c(N3CCOCC3)nc(-n3ccc(C4CCCNC4)n3)nc2c1 (centres unmarked) [compound 48] |  |
